In patent US20200055891A1, “NOVEL PHOSPHOTRIAZOLE MRNA 5'-END CAP ANALOGS, COMPOSITION COMPRISING THE SAME, RNA MOLECULE INCORPORATING THE SAME, USES THEREOF AND METHOD OF SYNTHESIZING RNA MOLECULE, PROTEIN OR PEPTIDE” (UNIWERSYTET WARSZAWSKI, priority 2016, published 2020):
Where a name gives a salt, the structure may show the parent alone.

Legend:
[1] = system: Rabbit Reticulocyte Lysate; assay: Translation efficiency of capped firefly luciferase mRNA in Rabbit Reticulocyte Lysate System; type: biochemical; conditions: relative, m^7GpppG = 1
Procedure: The reaction was quenched by addition of 2 μl of 0.5 M EDTA pH 8.0 and purified with NucleoSpin RNA Clean-up XS kit (Macherey-Nagel) to afford luciferase-coding RNA strands capped with appropriate cap analogue.
For each capped luciferase-coding RNA four diluted solutions were prepared—3.0 ng/μl, 1.5 ng/μl, 0.75 ng/μl, 0.375 ng/μl. Translation studies were performed using Rabbit Reticulocyte Lysate System (Promega). 9 μl of a mixture containing Rabbit Reticulocyte Lysate (4 μl), Amino Acid Mixture Minus Leucine (0.05 μl of 1 mM solution), Amino Acid Mixture Minus Methionine (0.05 μl of 1 mM solution), potassium acetate (1.9 μl of 1 M solution), MgCl2 (0.4 μl of 25 mM solution) and 2.1 μl of water was incubated at 30° C. for 1 h after which 1 μl of appropriate luciferase-coding RNA solution was added and incubation of the reaction was continued at 37° C. for another hour. The reaction was stopped by freezing in liquid nitrogen.
Translation efficiency was determined using Luciferase Reporter System (Promega). The samples were defrosted just before the experiment. To every sample 50 μl of Luciferase Assay Reagent was added just before measurement of luminescence on Synergy H1 Microplate Reader (Bio Tek). The measurement were performed for every four samples independently due to low stability of luminescence signal. The results are presented on. FIG. 4 as proportions between regression coefficients of linear relationships between capped luciferase-coding RNA concentration in translation reaction (300 pg/μl, 150 pg/μl, 75 pg/μl, 37.5 pg/μl) and corresponding luminescence signal.

SP6 RNA polymerase = molecular target: T1, SP6 RNA polymerase (Enterobacteria phage SP6, UniProt P06221); assay: Capping efficiency: incorporation of cap analogues at the 5′ end of short transcripts by in vitro transcription; type: biochemical; conditions: 1.25 mM cap analogue, 0.125 mM GTP
T1 construct: purchased New England BioLabs
T1 sequence (P06221 1-874): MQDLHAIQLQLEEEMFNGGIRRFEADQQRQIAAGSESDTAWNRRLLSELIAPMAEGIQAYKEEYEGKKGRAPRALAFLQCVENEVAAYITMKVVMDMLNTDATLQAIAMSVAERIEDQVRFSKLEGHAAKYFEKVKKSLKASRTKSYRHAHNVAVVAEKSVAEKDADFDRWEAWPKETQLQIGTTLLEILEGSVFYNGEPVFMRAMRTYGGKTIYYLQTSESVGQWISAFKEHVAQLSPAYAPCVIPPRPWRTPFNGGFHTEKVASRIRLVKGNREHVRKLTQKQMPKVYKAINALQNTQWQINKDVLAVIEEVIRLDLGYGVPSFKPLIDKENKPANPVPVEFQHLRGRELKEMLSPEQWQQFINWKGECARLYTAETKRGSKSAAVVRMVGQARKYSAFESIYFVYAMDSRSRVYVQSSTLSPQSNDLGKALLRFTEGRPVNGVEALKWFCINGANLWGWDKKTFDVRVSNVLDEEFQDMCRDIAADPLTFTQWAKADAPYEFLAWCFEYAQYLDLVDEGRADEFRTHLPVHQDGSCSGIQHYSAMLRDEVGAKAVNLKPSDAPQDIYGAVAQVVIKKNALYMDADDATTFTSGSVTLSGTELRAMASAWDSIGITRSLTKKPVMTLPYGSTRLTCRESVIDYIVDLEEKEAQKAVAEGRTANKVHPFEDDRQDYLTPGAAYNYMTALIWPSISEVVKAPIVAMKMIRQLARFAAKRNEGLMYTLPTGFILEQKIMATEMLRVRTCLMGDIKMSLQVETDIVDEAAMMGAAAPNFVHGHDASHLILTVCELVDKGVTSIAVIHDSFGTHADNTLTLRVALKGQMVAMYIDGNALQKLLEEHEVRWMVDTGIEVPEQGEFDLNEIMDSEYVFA
Procedure: Prior to in vitro transcription annealing of a template was performed. DNA1 (SEQ ID NO: 1) and DNA2 (SEQ ID NO: 2) (20 μM each) were incubated in the presence of 4 mM Tris-HCl pH 8.0, 15 mM NaCl and 0.1 mM EDTA at 95° C. for 2 min and then at room temperature for 30 min. After 10-fold dilution the mixture was directly used for in vitro transcription.
The reaction was quenched by addition of 2 μl of 0.5 M EDTA pH 8.0 and purified with RNA Clean&Concentrator-5 kit (Zymo Research) to afford capped RNA1 (SEQ ID NO: 4) strands.
To reduce heterogeneity, each capped RNA1 (11.42 ng/μl, ca. 1 μM) was incubated in presence of 50 mM Tris-HCl pH 8.0, 50 mM MgCl2, RiboLock RNase Inhibitor (ThermoFisher Scientific) (2.0 U/μl) and DNA3 (SEQ ID NO: 3) (1 μM) at 37° C. for 1 h to afford RNA2 (SEQ ID NO: 5).^44 The reaction was stopped by freezing in liquid nitrogen and directly analyzed by PAGE (FIG. 3).
Relative bands intensity was determined using CLIQS v1.0 program.

[2] = Hydrolysis in D2O seen in NMR spectra; type: physicochemical; conditions: dissolved in D2O just before NMR measurement; given if higher than 5%
Procedure: Some cap analogues hydrolyzed in D2O gradually. Although pure compounds (see HPLC profiles, Supporting Information 2) were dissolved in D2O just before measurements, the spectra indicated some level of hydrolysis. % of hydrolysis is provided along with compound characterization data, if higher than 5%.

[3] = Stability studies in buffers pH 3-9, RP HPLC; type: physicochemical; conditions: room temperature; for % of remaining cap, Bufor pH 7, 4 h / % of remaining cap, Bufor pH 7, 24 h: 0.1 M HEPES pH 7.0, 20 μM; for % of remaining cap, Bufor pH 5, 4 h / % of remaining cap, Bufor pH 5, 24 h: 0.1 M acetate buffer pH 5.0, 20 μM; for % of remaining cap, Bufor pH 9, 4 h / % of remaining cap, Bufor pH 9, 24 h: 0.1 M borate buffer pH 9.0, 20 μM; for % of remaining cap, Bufor pH 3, 4 h / % of remaining cap, Bufor pH 3, 24 h: 0.1 M formate buffer pH 3.0, 20 μM
Procedure: Analogues m2^7,2′-OGppp-triazole-C2H4NHppG, m2^7,2′-OGppp-triazole-C2H4OppG, m2^7,2′-OGppp-triazole-C2H4OpG, m2^7,2′-OGpp-triazole-C2H4OppG were incubated in sealed vials at 20 μM and at room temperature in four different buffers: 0.1 M formate buffer pH 3.0, 0.1 M acetate buffer pH 5.0, 0.1 M HEPES pH 7.0 and 0.1 M borate buffer pH 9.0. […] The starting compound peak area was determined for each time-point and % of remaining cap was calculated in reference to the time-point 0 h.

Compound	Translation efficiency [1]	Capping efficiency (SP6 RNA polymerase) [%]	hydrolysis in D2O [2] [%]	% of remaining cap, Bufor pH 7, 4 h [3] [%]	% of remaining cap, Bufor pH 7, 24 h [3] [%]	% of remaining cap, Bufor pH 5, 4 h [3] [%]	% of remaining cap, Bufor pH 5, 24 h [3] [%]	% of remaining cap, Bufor pH 9, 4 h [3] [%]	% of remaining cap, Bufor pH 9, 24 h [3] [%]	% of remaining cap, Bufor pH 3, 4 h [3] [%]	% of remaining cap, Bufor pH 3, 24 h [3] [%]
C[n+]1cn([C@@H]2O[C@H](COP(=O)(O)OP(=O)([O-])c3cn(CCNP(=O)(O)OC[C@H]4O[C@@H](n5cnc6c(=O)[nH]c(N)nc65)C(O)C4O)nn3)C(O)C2O)c2nc(N)[nH]c(=O)c21 (stereo partly shown) [m^7GpptC2H4NHpG, m^7Gpp-triazole-C2H4NHpG]	0.50 ± 0.06	56.8									
C[n+]1cn([C@@H]2O[C@H](COP(=O)(O)NCCn3cc(CP(=O)(O)OP(=O)([O-])OP(=O)(O)OC[C@H]4O[C@@H](n5cnc6c(=O)[nH]c(N)nc65)C(O)C4O)nn3)C(O)C2O)c2nc(N)[nH]c(=O)c21 (stereo partly shown) [m^7GpNHC2H4tCH2pppG, m^7GpNHC2H4-triazole-CH2pppG]	0.060 ± 0.004	62	7								
COC1C(O)[C@@H](COP(=O)(O)OP(=O)(O)OP(=O)([O-])c2cn(CCNP(=O)(O)OP(=O)(O)OC[C@H]3O[C@@H](n4cnc5c(=O)[nH]c(N)nc54)C(O)C3O)nn2)O[C@H]1n1c[n+](C)c2c(=O)[nH]c(N)nc21 (stereo partly shown) [m2^7,2′-OGppptC2H4NHppG, m2^7,2′-OGppp-triazole-C2H4NHppG]	2.226 ± 0.399	43.0		0	0	0	0	0.5	3.0	19.0	72.9
Nc1nc2c(ncn2[C@@H]2O[C@H](COP(=O)(O)OP(=O)(O)OP(=O)(O)OC[C@H]3O[C@@H](n4cnc5c(=O)[nH]c(N)nc54)[C@H](O)[C@@H]3O)[C@@H](O)[C@H]2O)c(=O)[nH]1 [GpppG, reference compound]	0.058 ± 0.008	92									
COC1C(O)[C@@H](COP(=O)(O)OP(=O)([O-])c2cn(CCOP(=O)(O)OP(=O)(O)OC[C@H]3O[C@@H](n4cnc5c(=O)[nH]c(N)nc54)C(O)C3O)nn2)O[C@H]1n1c[n+](C)c2c(=O)[nH]c(N)nc21 (stereo partly shown) [m2^7,2′-OGpptC2H4OppG, m2^7,2′-OGpp-triazole-C2H4OppG]	1.675 ± 0.168	44.2									
C[n+]1cn([C@@H]2O[C@H](COP(=O)(O)NCCn3cc(P(=O)([O-])OP(=O)(O)OC[C@H]4O[C@@H](n5cnc6c(=O)[nH]c(N)nc65)C(O)C4O)nn3)C(O)C2O)c2nc(N)[nH]c(=O)c21 (stereo partly shown) [m^7GpNHC2H4tppG, m^7GpNHC2H4-triazole-ppG]	0.075 ± 0.009	57	14								
C[n+]1cn([C@@H]2O[C@H](COP(=O)([O-])OP(=O)(O)NCCn3cc(CCP(=O)(O)OP(=O)(O)OC[C@H]4O[C@@H](n5cnc6c(=O)[nH]c(N)nc65)[C@@H](O)C4O)nn3)C(O)[C@@H]2O)c2nc(N)[nH]c(=O)c21 (stereo partly shown) [m^7GppNHC2H4tC2H4ppG, m^7GppNHC2H4-triazole-C2H4ppG]	0.239 ± 0.028	30	11								
COC1C(O)[C@@H](COP(=O)(O)OP(=O)(O)OP(=O)([O-])c2cn(CCOP(=O)(O)OC[C@H]3O[C@@H](n4cnc5c(=O)[nH]c(N)nc54)C(O)C3O)nn2)O[C@H]1n1c[n+](C)c2c(=O)[nH]c(N)nc21 (stereo partly shown) [m2^7,2′-OGppptC2H4OpG, m2^7,2′-OGppp-triazole-C2H4OpG]	2.773 ± 0.293	47.6		0	0	0	0	0.1	1.2	0	0
[N-]=[N+]=NCCNP(=O)(O)OP(=O)(O)OC[C@H]1O[C@@H](n2cnc3c(=O)[nH]c(N)nc32)[C@H](O)[C@@H]1O [GppNHC2H4N3, N-(2-azidoethyl) β-phosphoramidate guanosine diphosphate ammonium salt]			15								
COC1C(O)[C@@H](COP(=O)(O)OP(=O)(O)OP(=O)([O-])c2cn(CCOP(=O)(O)OP(=O)(O)OC[C@H]3O[C@@H](n4cnc5c(=O)[nH]c(N)nc54)C(O)C3O)nn2)O[C@H]1n1c[n+](C)c2c(=O)[nH]c(N)nc21 (stereo partly shown) [m2^7,2′-OGppptC2H4OppG, m2^7,2′-OGppp-triazole-C2H4OppG]	1.749 ± 0.263	38.0		0	0	0	0			0	0
C[n+]1cn([C@@H]2O[C@H](COP(=O)([O-])OP(=O)(O)Cc3cn(CCNP(=O)(O)OC[C@H]4O[C@@H](n5cnc6c(=O)[nH]c(N)nc65)C(O)C4O)nn3)C(O)C2O)c2nc(N)[nH]c(=O)c21 (stereo partly shown) [m^7GppCH2tC2H4NHpG, m^7GppCH2-triazole-C2H4NHpG]	0.155 ± 0.019	54									
